Measured values taken from patent publication US20240238242A1, “EGCG buccal tablet and use thereof” (priority 2023, published 2024).
Where “and” joins values, the source holds several entries; their conditions need not be identical. Equal values may be shown once.

Test system: Coronavirus (hCoV-229E)
Assay: Inactivation efficiency against coronavirus hCoV-229E strain (residual TCID50 on Huh-7 cells)
Type: cell-based
Conditions: for CPE test (virus replication in cell wells): wells 1-10; for average inactivation efficiency against virus / inactivation efficiency against the virus: hCoV-229E virus; for average inactivation efficiency against virus: three experiments; for inactivation efficiency against the virus: single experiment

Structure (SMILES): O=C(O[C@@H]1Cc2c(O)cc(O)cc2O[C@@H]1c1cc(O)c(O)c(O)c1)c1cc(O)c(O)c(O)c1 [EGCG, Epigallocatechin gallate]
- CPE test (virus replication in the cell wells) (1 mM EGCG + virus, co-incubated 5 minute, second experiment, dilution factor 10^8, wells 1-10): −
- CPE test (virus replication in the cell wells) (1 mM EGCG + virus, co-incubated 5 minutes, dilution factor 10^1, wells 1-10, third experiment): +
- CPE test (virus replication in the cell wells) (1 mM EGCG + virus, co-incubated 5 minutes, dilution factor 10^2, wells 1-10, third experiment): +
- CPE test (virus replication in the cell wells) (1 mM EGCG + virus, co-incubated 5 minutes, dilution factor 10^3, wells 1-10, third experiment): +
- CPE test (virus replication in the cell wells) (1 mM EGCG + virus, co-incubated 5 minutes, dilution factor 10^4, wells 1-10, third experiment): +
- CPE test (virus replication in the cell wells) (1 mM EGCG + virus, co-incubated 5 minutes, dilution factor 10^5, wells 1-10, third experiment): + and −
- CPE test (virus replication in the cell wells) (1 mM EGCG + virus, co-incubated 5 minutes, dilution factor 10^6, wells 1-10, third experiment): − and +
- CPE test (virus replication in the cell wells) (1 mM EGCG + virus, co-incubated 5 minutes, dilution factor 10^7, wells 1-10, third experiment): −
- CPE test (virus replication in the cell wells) (1 mM EGCG + virus, co-incubated 5 minutes, dilution factor 10^8, wells 1-10, third experiment): −
- CPE test (virus replication in cell wells) (1 mM EGCG + virus, hCoV-229E co-incubated 1 minute, second experiment, dilution factor 10^1): +
- CPE test (virus replication in cell wells) (1 mM EGCG + virus, hCoV-229E co-incubated 1 minute, second experiment, dilution factor 10^2): +
- CPE test (virus replication in cell wells) (1 mM EGCG + virus, hCoV-229E co-incubated 1 minute, second experiment, dilution factor 10^3): +
- CPE test (virus replication in cell wells) (1 mM EGCG + virus, hCoV-229E co-incubated 1 minute, second experiment, dilution factor 10^4): + and −
- CPE test (virus replication in cell wells) (1 mM EGCG + virus, hCoV-229E co-incubated 1 minute, second experiment, dilution factor 10^5): − and +
- CPE test (virus replication in cell wells) (1 mM EGCG + virus, hCoV-229E co-incubated 1 minute, second experiment, dilution factor 10^6): −
- CPE test (virus replication in cell wells) (1 mM EGCG + virus, hCoV-229E co-incubated 1 minute, second experiment, dilution factor 10^7): −
- CPE test (virus replication in cell wells) (1 mM EGCG + virus, hCoV-229E co-incubated 1 minute, second experiment, dilution factor 10^8): −
- CPE test (virus replication in cell wells) (1 mM EGCG + virus, hCoV-229E co-incubated 1 minute, third experiment, dilution factor 10^1): +
- CPE test (virus replication in cell wells) (1 mM EGCG + virus, hCoV-229E co-incubated 1 minute, third experiment, dilution factor 10^2): +
- CPE test (virus replication in cell wells) (1 mM EGCG + virus, hCoV-229E co-incubated 1 minute, third experiment, dilution factor 10^3): +
- CPE test (virus replication in cell wells) (1 mM EGCG + virus, hCoV-229E co-incubated 1 minute, third experiment, dilution factor 10^4): +
- CPE test (virus replication in cell wells) (1 mM EGCG + virus, hCoV-229E co-incubated 1 minute, third experiment, dilution factor 10^5): + and −
- CPE test (virus replication in cell wells) (1 mM EGCG + virus, hCoV-229E co-incubated 1 minute, third experiment, dilution factor 10^6): − and +
- CPE test (virus replication in cell wells) (1 mM EGCG + virus, hCoV-229E co-incubated 1 minute, third experiment, dilution factor 10^7): −
- CPE test (virus replication in cell wells) (1 mM EGCG + virus, hCoV-229E co-incubated 1 minute, third experiment, dilution factor 10^8): −
- average inactivation efficiency against virus (1 mM EGCG, 1 minute): 49.71%
- inactivation efficiency against the virus (1 mM EGCG, 5 minutes): 49.88% and 36.90%
- average inactivation efficiency against virus (1 mM EGCG, 5 minutes): 45.55%
- CPE test (virus replication in cell wells) (5 mM EGCG + hCoV-229E virus, co-incubated 1 minute, first experiment, dilution factor 10^2): +
- CPE test (virus replication in cell wells) (5 mM EGCG + hCoV-229E virus, co-incubated 1 minute, first experiment, dilution factor 10^3): +
- CPE test (virus replication in cell wells) (5 mM EGCG + hCoV-229E virus, co-incubated 1 minute, first experiment, dilution factor 10^4): +
- CPE test (virus replication in cell wells) (5 mM EGCG + hCoV-229E virus, co-incubated 1 minute, first experiment, dilution factor 10^5): + and −
- CPE test (virus replication in cell wells) (5 mM EGCG + hCoV-229E virus, co-incubated 1 minute, first experiment, dilution factor 10^6): −
- CPE test (virus replication in cell wells) (5 mM EGCG + hCoV-229E virus, co-incubated 1 minute, first experiment, dilution factor 10^7): −
- CPE test (virus replication in cell wells) (5 mM EGCG + hCoV-229E virus, co-incubated 1 minute, first experiment, dilution factor 10^8): −
- CPE test (virus replication in the cell wells) (5 mM EGCG + virus, co-incubated 5 minute, first experiment, dilution factor 10^2, wells 1-10): +
- CPE test (virus replication in the cell wells) (5 mM EGCG + virus, co-incubated 5 minute, first experiment, dilution factor 10^3, wells 1-10): +
- CPE test (virus replication in the cell wells) (5 mM EGCG + virus, co-incubated 5 minute, first experiment, dilution factor 10^4, wells 1-10): +
- CPE test (virus replication in the cell wells) (5 mM EGCG + virus, co-incubated 5 minute, first experiment, dilution factor 10^5, wells 1-10): − and +
- CPE test (virus replication in the cell wells) (5 mM EGCG + virus, co-incubated 5 minute, first experiment, dilution factor 10^6, wells 1-10): −
- CPE test (virus replication in the cell wells) (5 mM EGCG + virus, co-incubated 5 minute, first experiment, dilution factor 10^7, wells 1-10): −
- CPE test (virus replication in the cell wells) (5 mM EGCG + virus, co-incubated 5 minute, first experiment, dilution factor 10^8, wells 1-10): −
- CPE test (virus replication in the cell wells) (5 mM EGCG + virus, co-incubated 5 minute, second experiment, dilution factor 10^2, wells 1-10): +
- CPE test (virus replication in the cell wells) (5 mM EGCG + virus, co-incubated 5 minute, second experiment, dilution factor 10^3, wells 1-10): +
- CPE test (virus replication in the cell wells) (5 mM EGCG + virus, co-incubated 5 minute, second experiment, dilution factor 10^4, wells 1-10): +
- CPE test (virus replication in the cell wells) (5 mM EGCG + virus, co-incubated 5 minute, second experiment, dilution factor 10^5, wells 1-10): − and +
- CPE test (virus replication in the cell wells) (5 mM EGCG + virus, co-incubated 5 minute, second experiment, dilution factor 10^6, wells 1-10): − and +
- CPE test (virus replication in the cell wells) (5 mM EGCG + virus, co-incubated 5 minute, second experiment, dilution factor 10^7, wells 1-10): −
- CPE test (virus replication in the cell wells) (5 mM EGCG + virus, co-incubated 5 minute, second experiment, dilution factor 10^8, wells 1-10): −
- CPE test (virus replication in the cell wells) (5 mM EGCG + virus, co-incubated 5 minutes, dilution factor 10^1, wells 1-10, third experiment): +
- CPE test (virus replication in the cell wells) (5 mM EGCG + virus, co-incubated 5 minutes, dilution factor 10^2, wells 1-10, third experiment): +
- CPE test (virus replication in the cell wells) (5 mM EGCG + virus, co-incubated 5 minutes, dilution factor 10^3, wells 1-10, third experiment): +
- CPE test (virus replication in the cell wells) (5 mM EGCG + virus, co-incubated 5 minutes, dilution factor 10^4, wells 1-10, third experiment): +
- CPE test (virus replication in the cell wells) (5 mM EGCG + virus, co-incubated 5 minutes, dilution factor 10^5, wells 1-10, third experiment): + and −
- CPE test (virus replication in the cell wells) (5 mM EGCG + virus, co-incubated 5 minutes, dilution factor 10^6, wells 1-10, third experiment): − and +
- CPE test (virus replication in the cell wells) (5 mM EGCG + virus, co-incubated 5 minutes, dilution factor 10^7, wells 1-10, third experiment): −
- CPE test (virus replication in the cell wells) (5 mM EGCG + virus, co-incubated 5 minutes, dilution factor 10^8, wells 1-10, third experiment): −
- CPE test (virus replication in cell wells) (5 mM EGCG + virus, hCoV-229E co-incubated 1 minute, second experiment, dilution factor 10^2): +
- CPE test (virus replication in cell wells) (5 mM EGCG + virus, hCoV-229E co-incubated 1 minute, second experiment, dilution factor 10^3): + and −
- CPE test (virus replication in cell wells) (5 mM EGCG + virus, hCoV-229E co-incubated 1 minute, second experiment, dilution factor 10^4): +
- CPE test (virus replication in cell wells) (5 mM EGCG + virus, hCoV-229E co-incubated 1 minute, second experiment, dilution factor 10^5): − and +
- CPE test (virus replication in cell wells) (5 mM EGCG + virus, hCoV-229E co-incubated 1 minute, second experiment, dilution factor 10^6): −
- CPE test (virus replication in cell wells) (5 mM EGCG + virus, hCoV-229E co-incubated 1 minute, second experiment, dilution factor 10^7): −
- CPE test (virus replication in cell wells) (5 mM EGCG + virus, hCoV-229E co-incubated 1 minute, second experiment, dilution factor 10^8): −
- CPE test (virus replication in cell wells) (5 mM EGCG + virus, hCoV-229E co-incubated 1 minute, third experiment, dilution factor 10^2): +
- CPE test (virus replication in cell wells) (5 mM EGCG + virus, hCoV-229E co-incubated 1 minute, third experiment, dilution factor 10^3): +
- CPE test (virus replication in cell wells) (5 mM EGCG + virus, hCoV-229E co-incubated 1 minute, third experiment, dilution factor 10^4): +
- CPE test (virus replication in cell wells) (5 mM EGCG + virus, hCoV-229E co-incubated 1 minute, third experiment, dilution factor 10^5): + and −
- CPE test (virus replication in cell wells) (5 mM EGCG + virus, hCoV-229E co-incubated 1 minute, third experiment, dilution factor 10^6): − and +
- CPE test (virus replication in cell wells) (5 mM EGCG + virus, hCoV-229E co-incubated 1 minute, third experiment, dilution factor 10^7): −
- CPE test (virus replication in cell wells) (5 mM EGCG + virus, hCoV-229E co-incubated 1 minute, third experiment, dilution factor 10^8): −
- inactivation efficiency against the virus (5 mM EGCG, 1 minute): 68.38% and 49.88%
- average inactivation efficiency against virus (5 mM EGCG, 1 minute): 62.21%
- inactivation efficiency against the virus (5 mM EGCG, 5 minutes): 60.19% and 36.90% and 49.88%
- average inactivation efficiency against virus (5 mM EGCG, 5 minutes): 48.99%
